Drawing on ChEMBL document CHEMBL1152116, “Novel benzimidazole-4-carboxylic acid derivatives as potent and selective 5-HT3 receptor ligands” (Bioorg Med Chem Lett, 1996), this text covers Ki for eleven compounds.

In test [1] the target is 5-hydroxytryptamine receptor 4 (Rattus norvegicus, UniProt Q62758). Briefly: Displacement of [3H]GR-113808 from rat striatum 5-hydroxytryptamine 4 receptor.
The target of test [2] is T1, Serotonin 3 (5-HT3) receptor (Rattus norvegicus, UniProt P35563+Q9JJ16).
T1 sequence (P35563 whole entry): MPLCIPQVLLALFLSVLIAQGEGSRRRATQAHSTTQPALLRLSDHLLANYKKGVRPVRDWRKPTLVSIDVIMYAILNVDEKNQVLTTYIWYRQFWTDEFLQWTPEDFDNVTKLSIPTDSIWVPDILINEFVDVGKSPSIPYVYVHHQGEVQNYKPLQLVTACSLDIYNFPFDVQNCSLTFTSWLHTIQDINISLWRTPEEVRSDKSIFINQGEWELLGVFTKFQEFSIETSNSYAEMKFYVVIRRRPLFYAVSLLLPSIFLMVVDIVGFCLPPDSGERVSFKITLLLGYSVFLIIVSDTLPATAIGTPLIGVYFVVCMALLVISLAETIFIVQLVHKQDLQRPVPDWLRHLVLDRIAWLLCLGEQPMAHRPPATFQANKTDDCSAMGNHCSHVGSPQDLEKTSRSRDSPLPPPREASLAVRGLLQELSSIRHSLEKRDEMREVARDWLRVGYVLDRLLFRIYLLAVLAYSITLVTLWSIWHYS
T1 sequence (Q9JJ16 whole entry): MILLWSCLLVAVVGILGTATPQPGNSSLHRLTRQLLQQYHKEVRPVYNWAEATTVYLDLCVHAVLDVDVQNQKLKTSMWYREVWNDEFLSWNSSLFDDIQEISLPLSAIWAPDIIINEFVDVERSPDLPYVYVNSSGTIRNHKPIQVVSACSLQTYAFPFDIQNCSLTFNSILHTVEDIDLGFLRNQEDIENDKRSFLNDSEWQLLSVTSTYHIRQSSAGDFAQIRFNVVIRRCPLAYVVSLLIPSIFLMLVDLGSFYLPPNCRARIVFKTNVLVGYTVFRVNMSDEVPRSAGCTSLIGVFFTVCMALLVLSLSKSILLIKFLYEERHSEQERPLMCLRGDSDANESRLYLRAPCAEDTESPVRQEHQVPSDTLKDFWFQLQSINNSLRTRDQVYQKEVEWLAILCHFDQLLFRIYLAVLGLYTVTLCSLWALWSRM
Briefly: In vitro displacement of [3H]-LY 278584 from rat cerebral cortex 5-hydroxytryptamine 3 receptor. In kind it is tissue-based. On the technique in general: Loss of bound radioactivity is the signal in a displacement assay; it reports binding, not function.

Sequence of 5-hydroxytryptamine receptor 4 (Q62758 whole entry): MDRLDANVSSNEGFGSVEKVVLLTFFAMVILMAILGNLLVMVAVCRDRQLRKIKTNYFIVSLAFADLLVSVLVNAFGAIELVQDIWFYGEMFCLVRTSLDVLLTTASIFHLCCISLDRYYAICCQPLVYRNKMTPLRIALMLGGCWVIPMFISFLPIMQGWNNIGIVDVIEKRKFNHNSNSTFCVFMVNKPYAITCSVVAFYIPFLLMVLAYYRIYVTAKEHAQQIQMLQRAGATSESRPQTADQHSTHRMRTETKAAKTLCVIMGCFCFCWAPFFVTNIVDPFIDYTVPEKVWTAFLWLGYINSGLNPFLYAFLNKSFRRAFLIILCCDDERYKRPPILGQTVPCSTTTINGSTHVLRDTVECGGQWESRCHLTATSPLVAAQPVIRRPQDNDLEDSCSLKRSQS

One may read the Ki as the dissociation constant of the complex between target and ligand, obtained from inhibition or displacement. Regarding `O=C(NC1CN2CCC1CC2)c1cccc2nc[nH]c12` (stereo not given), the Ki in test [1] is greater than 1000 nM; in test [2], 3.7 nM.
The corresponding values for `CN1CCC(NC(=O)c2cccc3[nH]cnc23)CC1` are 719 nM and 145 nM.
For the compound `CN1CCC(NC(=O)c2cc(Cl)cc3[nH]cnc23)CC1`, the inhibition constant Ki in test [1] is 54 nM; in test [2], 29.5 nM.
In the case of `O=C(NC1CN2CCC1CC2)c1cc(Cl)cc2nc[nH]c12` (stereo not given), the values for the Ki in test [1] and in test [2] were 168 nM and 0.29 nM, respectively.
For the compound `CN1C2CCCC1CC(NC(=O)c1cc(Cl)cc3nc[nH]c13)C2` (stereo not given), the Ki is 167 nM in test [1] and 154 nM in test [2].
Consider `CN1C2CCCC1CC(OC(=O)c1cc(Cl)cc3[nH]cnc13)C2` (stereo not given), for which the Ki in test [1] is greater than 1000 nM; in test [2], 4.9 nM.
In the case of `CN1C2CCCC1CC(OC(=O)c1cccc3nc[nH]c13)C2` (stereo not given), the Ki in test [1] was greater than 10000 nM; in test [2], 129 nM.
For `CN1CCC(OC(=O)c2cccc3nc[nH]c23)CC1` the same measures were greater than 10000 nM and greater than 1000 nM.
As for `CN1C2CCCC1CC(NC(=O)c1cccc3[nH]cnc13)C2` (stereo not given), the inhibition constant (Ki) was greater than 1000 nM in test [1] and 6.1 nM in test [2].
In test [1], `CN1[C@@H]2CC[C@H]1C[C@@H](OC(=O)c1c[nH]c3ccccc13)C2` [TROPISETRON] returned a Ki of 63 nM.
Compound `COc1cc(N)c(Cl)cc1C(=O)NC1CN2CCC1CC2` (stereo not given) [ZACOPRIDE] displayed a Ki in test [1] of 158 nM. Compared with the last compound, the Ki is about 2.5-fold higher.
